Patent US20140228279A1, “CATIONIC PEPTIDOPOLYSACCHARIDES WITH EXCELLENT BROAD- SPECTRUM ANTIMICROBIAL ACTIVITIES AND HIGH SELECTIVITY” (priority 2011, published 2014)
Values after ≈ are worked out from the molar mass of the structure shown. “Also recorded” adds a separate entry of the source. Read-outs that look alike come from different tables or passages of the source.

Legend:
[1] = tested on: Escherichia coli (ATCC8739); settings: comparator agents (#3A-#6E), previously reported; cited from earlier work
human red blood cells [2] = settings: cited from earlier work
[3] = tested on: the three bacteria (P. aeruginosa, E. coli, S. aureus); test: MIC, summarised over the bacterial pathogens; type: cell-based; settings: for MIC against the bacterial pathogens: lower bound over the three bacteria
Description: (§1) Bacteria cells were grown overnight at 37° C. in MH broth to a mid-log phase and diluted to 10^4 to 10^5 CFU ml^−1. A twofold dilution series of 100 μl product solution in MH broth (YM broth for the fungi C. albicans and F. solani) was made on 96-well microplate, followed by the addition of 100 μl bacterial suspension (10^4 to 10^5 CFU mL^−1). The plates were incubated at 37° C. for 18-24 h (28° C., 36-48 h for fungi), and the absorbance at 600 nm was measured with a microplate reader (BIO-RAD, US). Positive control was without product, and negative control was without bacteria/fungi inoculum. MICs were determined as the lowest concentration that inhibited cell growth by more than 90%.

human red blood cells [4] = test: Hemolysis assay; type: cell-based; settings: for HC50 (the concentration which is 50% hemolytic): human erythrocytes, 1 h at 37° C.
Description: Fresh human blood (5 ml) was collected from a healthy donor. Erythrocytes were separated by centrifugation at 1000 rpm for 10 min, washed three times with Tris buffer (10 mM Tris, 150 mM NaCl, pH 7.2) and diluted to final concentration (5%, v/v). 50 μl of antimicrobial solution at different concentrations mixed with 50 μl erythrocytes stock were added to a 96-well microplate and incubated for 1 h at 37° C. with 150 rpm shaking. The microplate were centrifuged at 1,000 rpm for 10 min. 80 μl aliquots of the supernatant were then transferred to a new 96-well microplate and diluted with another 80 μl of Tris buffer. Hemolysis was measured as the absorbance at 540 nm with a microplate reader (BIO-RAD, US). Complete hemolysis was determined in Tris buffer plus 0.1% Triton x-100 as positive control, while Tris buffer was used as negative control. The percentage of hemolysis (H) was calculated using the following equation: Hemolysis=[(Op−Ob)/(Ot−Ob)]×100%, where Op is the density for a given antimicrobial agent concentration, Ob is the density for the buffer, and Ot is the density for the Triton x-100 positive control.

[5] = tested on: Escherichia coli (ATCC8739); test: Minimal inhibitory concentration (MIC), twofold broth dilution; type: cell-based; settings: Gram-negative; lowest concentration inhibiting growth by more than 90%
Description: as §1

[6] = tested on: Fusarium solani (ATCC36031); test: as above; type: cell-based; settings: fungi; lowest concentration inhibiting growth by more than 90%
Description: as §1

[7] = tested on: Staphylococcus aureus (ATCC6538); test: as above; type: cell-based; settings: Gram-positive; lowest concentration inhibiting growth by more than 90%
Description: as §1

[8] = tested on: Candida albicans (ATCC10231); test: as above; type: cell-based; settings: fungi; lowest concentration inhibiting growth by more than 90%
Description: as §1

[9] = tested on: Pseudomonas aeruginosa (ATCC9027); test: as above; type: cell-based; settings: Gram-negative; lowest concentration inhibiting growth by more than 90%
Description: as §1

[10] = tested on: all tested bacteria and fungi (P. aeruginosa, E. coli, S. aureus, C. albicans, F. solani); test: MIC, summarised over all pathogens tested; type: cell-based; settings: for MICs for all pathogens tested: range over Gram-negative, Gram-positive bacteria and fungi
Description: as §1

[11] = tested on: E. coli, P. aeruginosa, S. aureus, C. albicans, F. solani cells; test: Morphology study of microorganisms (FESEM); type: cell-based; settings: at MIC concentration, 15 min treatment, compared with intact controls
Description: After incubation the microbes were immediately fixed with glutaraldehyde (2.5%, 5 ml) solution for 4 hr. Following dehydration in a graded ethanol series (20%-100%) and drying under a nitrogen flow, the samples were coated with platinum and imaged with FESEM (JEOL JSM-6700F) for microbe morphology changes.

E. coli membrane = test: Membrane depolarization, DiSC3(5) dye leakage; type: cell-based, Escherichia coli; settings: 100 μg ml^−1
Description: Bacteria were harvested at mid-log phase, washed three times with a buffer solution of 20 mM glucose and 5 mM HEPES (pH 7.4). The bacteria was resuspended in the washing buffer with additional 0.1 M KCl, then incubated with DiSC3(5) (20 nM) until it was incorporated into the cell membrane. The CS-g-K16 was added at a concentration of 100 μg ml^−1, and the fluorescence was monitored with a fluorescence spectrometer (PerkinElmer LS55, U.S.) at λex=620 nm and λem=670 nm. Finally, 0.2 nM Gramicidin D was added to obtain the full release of the dye.

E. coli = test: LIVE/DEAD bacterial viability assay; type: cell-based, Escherichia coli; settings: at MIC concentration, 15 min at 37° C.
Description: LIVE/DEAD assay was carried out using CS-g-K16 with E. coli. […] After incubation the cells were collected by centrifugation and stained with BacLight bacterial viability kit L13152 (Invitrogen) for 30 min at room temperature. The cells were then imaged with fluorescence microscopy (Carl Zeiss, Germany).

[12] = tested on: SMCs and E. coli co-culture; test: Co-culture of bacteria and mammalian cells; type: cell-based; settings: 100 μg ml^−1, 6 h after inoculation of 1×10^5 E. coli
Description: SMCs were cultured in 96-well plates from inocula of 1×10^5 cells in each well and incubated at 37° C. for 24 h in a culture medium free of any antibiotics. 1×10^5 cells E. coli was seeded in the SMC culture wells. Then CS-g-K16 was added in the SMC and E. coli co-culture wells at a concentration of 100 μg ml^−1. Wells without CS-g-K16 were used as a control. The co-culture was imaged using an inverted optical microscope (Carl Zeiss, Germany).

Row | Compound | MIC E. coli [5] [µg/mL] | MIC F. solani [6] [µg/mL] | MIC S. aureus [7] [µg/mL] | MIC C. albicans [8] [µg/mL] | MIC P. aeruginosa [9] [µg/mL] | other results
1 | CC[C@H](C)[C@H](NC(=O)CN)C(=O)NCC(=O)N[C@@H](C)C(=O)N[C@H](C(=O)N[C@@H](CC(C)C)C(=O)N[C@@H](CCCCN)C(=O)N[C@H](C(=O)N[C@@H](CC(C)C)C(=O)N[C@H](C(=O)N[C@H](C(=O)NCC(=O)N[C@@H](CC(C)C)C(=O)N1CCC[C@H]1C(=O)N[C@@H](C)C(=O)N[C@@H](CC(C)C)C(=O)N[C@H](C(=O)N[C@@H](CO)C(=O)N[C@@H](Cc1c[nH]c2ccccc12)C(=O)N[C@H](C(=O)N[C@@H](CCCCN)C(=O)N[C@@H](CCCNC(=N)N)C(=O)N[C@@H](CCCCN)C(=O)N[C@@H](CCCNC(=N)N)C(=O)N[C@@H](CCC(N)=O)C(=O)N[C@@H](CCC(N)=O)C(N)=O)[C@@H](C)CC)[C@@H](C)CC)[C@@H](C)O)[C@@H](C)O)C(C)C)C(C)C [Melittin] | – | – | – | – | – | MIC E. coli [1]: 13 µg/mL (≈ 4.57 µM); HC50 (the concentration which is 50% hemolytic) (human red blood cells [2]; comparator agents (#3A-#6E), previously reported): 2 µg/mL
2 | Magainin-2 | – | – | – | – | – | MIC E. coli [1]: 125 µg/mL; HC50 (the concentration which is 50% hemolytic) (human red blood cells [2]): >250 µg/mL
3 | chitosan-graft-poly(lysine-ran-phenylalanine) [CS-g-K8F8] | >2500 | 160 | 2500 | >2500 | >2500 | MIC against the bacterial pathogens [3]: ≥ 2500 µg/mL; HC50 (the concentration which is 50% hemolytic) (human red blood cells [4]): 12500 µg/mL
4 | chitosan-graft-poly(lysine-ran-phenylalanine) [CS-g-K12.5F12.5] | 630 | 80 | 1250 | 310 | 1250 | increase of MICs compared with P(K12.5F12.5) (#5B) ([3]; for the three bacteria): more than 5 times; MIC against the bacterial pathogens [3]: ≥ 630 µg/mL; HC50 (the concentration which is 50% hemolytic) (human red blood cells [4]): 7500 µg/mL
5 | chitosan-graft-polylysine [CS-g-K1] | 80 | 40 | 160 | 40 | 80 | –
6 | chitosan-graft-polylysine [CS-g-K3-HMW] | 80 | 40 | 160 | 160 | 310 | MICs relative to those of CS-g-K3 (#1B) ([10]; same grafting ratio of lysine, higher molecular weight chitosan, all five pathogens): ≥ 4 fold
7 | chitosan-graft-polylysine [CS-g-K3] | 20 | 10 | 40 | 20 | 20 | –
8 | chitosan-graft-polylysine [CS-g-K9] | 10 | 5 | 20 | 20 | 20 | MICs for all pathogens tested [10]: 5 to 20 µg/mL
9 | chitosan-graft-polylysine [CS-g-K16] | 10 | 5 | 10 | 20 | 20 | morphology of microbial cells (FESEM) [11]: exhibit obvious morphological changes; membrane potential sensitive dye DiSC3(5) leakage (E. coli membrane): immediate fluorescence increase; bacterial viability by LIVE/DEAD stain (SYTO 9 / propidium iodide) (E. coli): renders E. coli cell membrane permeable to propidium iodide; bacterial growth and SMCs growth in co-culture [12]: inhibits the bacterial growth but permits SMCs growth; also recorded: bacteria were inhibited and SMCs grew well; HC50 compared with other state-of-the-art antimicrobial polymers (human red blood cells [4]): 3 to 5 orders of magnitude; hemolytic percentage (human red blood cells [4]): below 50%; MICs for all pathogens tested [10]: 5 to 20 µg/mL; MICs against Gram-negative and Gram-positive bacteria and fungi ([10]; range over all pathogens): 5-20 μml^−1
10 | chitosan-graft-polylysine [CS-g-K25] | 10 | 5 | 10 | 20 | 40 | –
